Reference: paper PMC6886544
Where two headings read alike, the source gives them in different places.

How the values were obtained:
[1] = test system: HCC827 cells (EGFR-delE746_A750); experiment: CellTiter-Glo viability assay, HCC827; type: cell-based; details: Homo sapiens; HCC827, 96 hours, CellTiter-Glo; read-out: EGFR CTG EC50 HCC827;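 note: luminescence from ATP content as a measure of metabolically active cells, in RPMI with 10% FBS, compound added as serial dilutions after 24 h of preculture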
H358 cells (KRAS mutant) = experiment: CellTiter-Glo viability assay, H358; type: cell-based; details: Homo sapiens, NCI-H358;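 note: viable cell number estimated from ATP-dependent luminescence following exposure to serially diluted inhibitor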
[2] = Microsomal stability (phase I), mouse; type: in vitro ADME; details: mouse liver microsomes, up to 60 minutes, 37 °C
Protocol: Microsomal stability (phase I) assay.
Metabolic stability under oxidative conditions was measured in liver microsomes from different
time up to 50 minutes (HLM) or 60 minutes (MLM) at 37 °C. Based on the compound half-life t1/2,
the in vitro intrinsic clearance CLint was calculated. […]

[3] = Plasma protein binding, mouse; type: in vitro ADME; details: equilibrium dialysis, 37 °C
Protocol: Assessment of plasma protein binding was measured by equilibrium dialysis by incubating plasma
based determination of final compound concentrations. […]

[4] = test system: A431 cells (EGFR wild type); experiment: CellTiter-Glo viability assay, A431
A549 cells (KRAS mutant) = experiment: CellTiter-Glo viability assay, A549; details: Homo sapiens
[5] = test system: H1975 cells (EGFR-L858R/T790M); experiment: CellTiter-Glo viability assay, H1975; details: Homo sapiens, NCI-H1975, 96 h, read-out: EGFR CTG EC50 H1975, H1975, 96 hours, CellTiter-Glo
EGFR-wt = EGFR-wt (Homo sapiens, UniProt P00533); experiment: HTRF KinEASE-TK activity-based assay, EGFR-wt; details: EGFR HTRF IC50 wt, ATP at Km (9.5 µM), 30 min preincubation; mean ± SD of three independent measurements in duplicates
Chain of EGFR-wt (P00533 25-1210): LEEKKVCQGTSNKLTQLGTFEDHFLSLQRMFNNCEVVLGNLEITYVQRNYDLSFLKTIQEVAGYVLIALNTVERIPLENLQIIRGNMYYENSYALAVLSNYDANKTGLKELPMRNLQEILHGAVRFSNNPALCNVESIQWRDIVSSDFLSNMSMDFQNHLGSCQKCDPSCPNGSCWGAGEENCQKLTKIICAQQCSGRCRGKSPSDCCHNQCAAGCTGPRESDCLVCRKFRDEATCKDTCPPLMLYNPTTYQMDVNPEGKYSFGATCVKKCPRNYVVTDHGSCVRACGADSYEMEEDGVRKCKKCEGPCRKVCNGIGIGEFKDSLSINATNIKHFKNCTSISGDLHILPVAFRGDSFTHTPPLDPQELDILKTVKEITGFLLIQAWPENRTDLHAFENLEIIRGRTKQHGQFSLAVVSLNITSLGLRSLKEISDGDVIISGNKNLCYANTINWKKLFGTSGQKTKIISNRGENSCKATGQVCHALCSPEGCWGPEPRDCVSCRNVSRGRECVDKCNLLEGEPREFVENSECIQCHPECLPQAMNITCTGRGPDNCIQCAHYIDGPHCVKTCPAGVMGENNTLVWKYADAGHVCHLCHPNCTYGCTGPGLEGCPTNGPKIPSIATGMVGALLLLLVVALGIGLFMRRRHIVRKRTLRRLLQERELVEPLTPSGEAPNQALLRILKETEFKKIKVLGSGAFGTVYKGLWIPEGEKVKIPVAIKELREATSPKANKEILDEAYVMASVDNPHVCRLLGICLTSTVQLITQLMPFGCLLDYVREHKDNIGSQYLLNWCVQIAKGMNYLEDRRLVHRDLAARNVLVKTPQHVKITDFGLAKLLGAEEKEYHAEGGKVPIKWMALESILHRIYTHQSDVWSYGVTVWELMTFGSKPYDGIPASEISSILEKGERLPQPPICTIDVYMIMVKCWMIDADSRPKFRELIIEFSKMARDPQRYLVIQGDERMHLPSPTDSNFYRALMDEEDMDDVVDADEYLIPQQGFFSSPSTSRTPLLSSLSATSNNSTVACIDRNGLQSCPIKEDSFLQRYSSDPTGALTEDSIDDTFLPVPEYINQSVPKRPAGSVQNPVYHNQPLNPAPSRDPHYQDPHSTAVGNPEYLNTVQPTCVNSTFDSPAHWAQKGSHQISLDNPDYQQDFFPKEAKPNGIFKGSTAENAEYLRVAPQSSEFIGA

EGFR-L858R [6] = target: T1, EGFR-L858R (Homo sapiens, UniProt P00533, L858R); experiment: HTRF KinEASE-TK activity-based assay, EGFR-L858R
T1 sequence (P00533 25-1210 L858R): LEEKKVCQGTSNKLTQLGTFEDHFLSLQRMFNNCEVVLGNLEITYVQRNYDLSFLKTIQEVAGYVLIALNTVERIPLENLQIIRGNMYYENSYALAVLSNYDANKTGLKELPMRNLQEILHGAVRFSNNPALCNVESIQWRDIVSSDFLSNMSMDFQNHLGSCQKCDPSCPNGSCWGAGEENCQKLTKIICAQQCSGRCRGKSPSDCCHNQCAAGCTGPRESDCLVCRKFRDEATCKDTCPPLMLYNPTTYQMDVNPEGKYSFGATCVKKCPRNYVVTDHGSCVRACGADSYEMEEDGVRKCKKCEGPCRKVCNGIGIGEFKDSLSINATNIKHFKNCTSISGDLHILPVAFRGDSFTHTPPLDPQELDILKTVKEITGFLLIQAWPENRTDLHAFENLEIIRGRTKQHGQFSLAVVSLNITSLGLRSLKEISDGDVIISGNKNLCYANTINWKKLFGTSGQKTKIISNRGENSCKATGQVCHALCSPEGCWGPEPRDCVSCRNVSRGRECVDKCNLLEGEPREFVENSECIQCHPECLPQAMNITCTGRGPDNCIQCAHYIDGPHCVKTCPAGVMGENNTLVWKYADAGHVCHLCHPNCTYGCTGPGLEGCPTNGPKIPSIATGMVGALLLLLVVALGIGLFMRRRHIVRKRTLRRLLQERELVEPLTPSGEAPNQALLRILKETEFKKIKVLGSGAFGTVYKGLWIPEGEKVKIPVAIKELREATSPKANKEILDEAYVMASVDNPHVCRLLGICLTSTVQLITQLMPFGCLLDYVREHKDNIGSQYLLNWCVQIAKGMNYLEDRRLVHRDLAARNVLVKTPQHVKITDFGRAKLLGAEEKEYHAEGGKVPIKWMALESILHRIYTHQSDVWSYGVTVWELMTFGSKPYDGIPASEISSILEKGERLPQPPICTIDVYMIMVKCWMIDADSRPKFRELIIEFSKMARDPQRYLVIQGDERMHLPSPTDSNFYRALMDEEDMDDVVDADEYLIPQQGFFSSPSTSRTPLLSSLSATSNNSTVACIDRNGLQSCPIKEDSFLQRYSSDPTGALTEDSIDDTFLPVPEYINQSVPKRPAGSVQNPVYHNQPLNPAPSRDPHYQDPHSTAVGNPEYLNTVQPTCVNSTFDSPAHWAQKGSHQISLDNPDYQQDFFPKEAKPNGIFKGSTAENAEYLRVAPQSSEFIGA

EGFR-L858R [7] = target: T1, EGFR-L858R; experiment: Kinetic characterization (Ki, kinact), EGFR-L858R
EGFR-L858R/T790M = EGFR-L858R/T790M (Homo sapiens, UniProt P00533, L858R/T790M); experiment: HTRF KinEASE-TK activity-based assay, EGFR-L858R/T790M; details: EGFR HTRF IC50 L858R/T790M, ATP at Km (4 µM), 30 min preincubation; mean ± SD of three independent measurements in duplicates
Chain of EGFR-L858R/T790M (P00533 25-1210 T790M/L858R): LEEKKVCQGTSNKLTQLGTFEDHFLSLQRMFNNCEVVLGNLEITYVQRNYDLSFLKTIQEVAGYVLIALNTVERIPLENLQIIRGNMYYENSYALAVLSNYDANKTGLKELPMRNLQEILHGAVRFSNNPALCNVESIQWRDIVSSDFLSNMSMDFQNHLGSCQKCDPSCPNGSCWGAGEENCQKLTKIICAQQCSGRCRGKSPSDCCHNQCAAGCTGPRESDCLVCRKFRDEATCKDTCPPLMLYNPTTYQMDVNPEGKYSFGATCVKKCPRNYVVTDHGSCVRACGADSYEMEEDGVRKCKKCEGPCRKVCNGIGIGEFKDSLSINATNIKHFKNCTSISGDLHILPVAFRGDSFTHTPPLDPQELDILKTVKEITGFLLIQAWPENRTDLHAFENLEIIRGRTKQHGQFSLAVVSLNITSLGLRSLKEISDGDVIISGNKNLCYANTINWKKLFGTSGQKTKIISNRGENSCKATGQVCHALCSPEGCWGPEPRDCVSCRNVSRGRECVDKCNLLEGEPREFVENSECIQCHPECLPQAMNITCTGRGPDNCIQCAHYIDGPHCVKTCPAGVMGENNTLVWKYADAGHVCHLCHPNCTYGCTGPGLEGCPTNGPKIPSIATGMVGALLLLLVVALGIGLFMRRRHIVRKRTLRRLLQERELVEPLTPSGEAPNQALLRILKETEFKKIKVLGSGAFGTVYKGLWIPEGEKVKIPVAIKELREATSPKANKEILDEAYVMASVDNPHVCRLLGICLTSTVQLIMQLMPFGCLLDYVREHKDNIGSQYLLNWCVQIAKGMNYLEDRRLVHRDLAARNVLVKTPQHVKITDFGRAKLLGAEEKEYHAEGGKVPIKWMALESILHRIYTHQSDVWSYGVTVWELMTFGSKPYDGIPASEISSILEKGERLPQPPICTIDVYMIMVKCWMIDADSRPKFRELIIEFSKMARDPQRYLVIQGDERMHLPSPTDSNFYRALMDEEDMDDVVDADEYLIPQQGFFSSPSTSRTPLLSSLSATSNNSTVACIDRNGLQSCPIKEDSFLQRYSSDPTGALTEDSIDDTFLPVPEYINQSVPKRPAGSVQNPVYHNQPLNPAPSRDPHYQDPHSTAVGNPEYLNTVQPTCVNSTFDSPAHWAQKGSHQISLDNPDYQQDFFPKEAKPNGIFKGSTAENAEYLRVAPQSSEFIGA

BLK = BLK (Homo sapiens, UniProt P51451); experiment: SelectScreen kinase profiling, BLK; type: biochemical; details: mean ± SD of one measurement in duplicates
Chain of BLK (P51451 whole entry): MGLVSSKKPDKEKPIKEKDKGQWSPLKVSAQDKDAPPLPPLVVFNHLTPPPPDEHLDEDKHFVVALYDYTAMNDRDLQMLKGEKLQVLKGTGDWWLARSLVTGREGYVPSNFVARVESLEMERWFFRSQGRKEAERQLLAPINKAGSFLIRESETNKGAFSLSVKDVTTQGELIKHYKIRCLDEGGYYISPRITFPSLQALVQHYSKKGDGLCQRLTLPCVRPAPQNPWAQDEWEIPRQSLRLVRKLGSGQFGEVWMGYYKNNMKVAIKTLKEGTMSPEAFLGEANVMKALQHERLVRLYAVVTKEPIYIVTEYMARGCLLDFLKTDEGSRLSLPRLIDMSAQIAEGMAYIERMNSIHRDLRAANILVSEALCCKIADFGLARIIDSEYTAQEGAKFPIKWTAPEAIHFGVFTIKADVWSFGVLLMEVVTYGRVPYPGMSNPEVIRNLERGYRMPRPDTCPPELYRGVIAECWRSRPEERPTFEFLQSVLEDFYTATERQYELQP
Protocol: (§1) Kinase profiling of compound 17a at a concentration of 1 µM generated with the SelectScreen® Profiling Service from Life Technologies.
(§2) Figure S2. Kinase profiling of compound 17a, Illustration as waterfall plot. 9 Kinases harboring a Cysteine isostructural to Cys797 in EGFR are highlighted
(§3) Kinase % inhibition Kinase % inhibition […]
(§4) aValues are the mean ± SD of one measurement in duplicates; bKinases harboring a Cysteine isostructural to Cys797 […]
(§5) (1 picture or pasted object on this page, not shown here)

BTK = BTK (Homo sapiens, UniProt Q06187); experiment: SelectScreen kinase profiling, BTK; type: biochemical; details: mean ± SD of one measurement in duplicates
Protocol: as §1, §2, §3, §4, §5

EGFR-L861Q = EGFR-L861Q (Homo sapiens, UniProt P00533, L861Q); experiment: SelectScreen kinase profiling, EGFR-L861Q; type: biochemical; details: mean ± SD of one measurement in duplicates
Protocol: as §1, §2, §3, §4, §5

EGFR-T790M/L858R = EGFR-T790M/L858R (Homo sapiens, UniProt P00533, L858R/T790M); experiment: SelectScreen kinase profiling, EGFR-T790M/L858R; type: biochemical; details: mean ± SD of one measurement in duplicates
Protocol: as §1, §2, §3, §4, §5

Her2 = Her2 (Homo sapiens, UniProt P04626); experiment: SelectScreen kinase profiling, Her2; type: biochemical; details: mean ± SD of one measurement in duplicates
Protocol: as §1, §2, §3, §4, §5

LCK = LCK (Homo sapiens, UniProt P06239); experiment: SelectScreen kinase profiling, LCK; type: biochemical; details: mean ± SD of one measurement in duplicates
Protocol: as §1, §2, §3, §4, §5

EPHA1 = EPHA1 (Homo sapiens, UniProt P21709); experiment: SelectScreen kinase profiling, EPHA1; type: biochemical; details: mean ± SD of one measurement in duplicates
Protocol: as §1, §2, §3, §4, §5

FGFR1 = FGFR1 (Homo sapiens, UniProt P11362); experiment: SelectScreen kinase profiling, FGFR1; type: biochemical; details: mean ± SD of one measurement in duplicates
Chain of FGFR1 (P11362 22-822): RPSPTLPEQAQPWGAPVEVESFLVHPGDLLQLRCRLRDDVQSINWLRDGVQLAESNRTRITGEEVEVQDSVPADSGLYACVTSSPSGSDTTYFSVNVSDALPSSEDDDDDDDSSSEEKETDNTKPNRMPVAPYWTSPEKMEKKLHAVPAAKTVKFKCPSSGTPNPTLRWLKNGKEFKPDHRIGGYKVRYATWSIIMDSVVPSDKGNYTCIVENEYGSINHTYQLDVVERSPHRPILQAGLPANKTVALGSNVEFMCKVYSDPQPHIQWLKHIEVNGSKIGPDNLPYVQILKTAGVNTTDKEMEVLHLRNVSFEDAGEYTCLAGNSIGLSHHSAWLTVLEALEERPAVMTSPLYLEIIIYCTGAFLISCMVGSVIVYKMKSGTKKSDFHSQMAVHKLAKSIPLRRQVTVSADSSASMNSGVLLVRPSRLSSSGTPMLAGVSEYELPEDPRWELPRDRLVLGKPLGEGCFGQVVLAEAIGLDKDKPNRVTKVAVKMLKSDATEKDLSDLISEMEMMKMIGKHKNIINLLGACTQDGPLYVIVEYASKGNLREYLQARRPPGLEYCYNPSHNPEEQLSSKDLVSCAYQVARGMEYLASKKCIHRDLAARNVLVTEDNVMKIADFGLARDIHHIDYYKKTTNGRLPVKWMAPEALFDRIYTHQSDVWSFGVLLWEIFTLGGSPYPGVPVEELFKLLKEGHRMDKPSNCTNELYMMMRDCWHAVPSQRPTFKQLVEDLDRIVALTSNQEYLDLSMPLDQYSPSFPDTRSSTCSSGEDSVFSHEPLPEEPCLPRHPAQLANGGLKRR
Protocol: as §1, §2, §3, §4, §5

[8] = H358, 96 hours, CellTiter-Glo, read-out: KRAS CTG EC50 H358
[9] = Homo sapiens, A-431, 96 h, read-out: EGFR CTG EC50 A431, A431, 96 hours, CellTiter-Glo
[10] = A549, 96 h, read-out: KRAS CTG EC50 A549

EC50 [1] [nM]	EC50 (H358 cells (KRAS mutant); [8]) [nM]	microsomal CLint at 3 µM [2] [µL/min/mg]	EC50 [4, 9] [nM]	EC50 (A549 cells (KRAS mutant); [10]) [nM]	EC50 [5] [nM]	IC50 (EGFR-wt) [nM]	IC50 (EGFR-L858R [6]) [nM]	IC50 (EGFR-L858R/T790M) [nM]	Structure (SMILES)	other results
< 14	3690 ± 1460	46	1680 ± 402	3650 ± 1750	51 ± 19	0.2 ± 0.2	< 0.1	< 0.1	C=CC(=O)Nc1cccc(-c2c(-c3ccc(N4CCN(C)CC4)cc3)[nH]c3ncnc(OCC(C)C)c23)c1 [Compound 19h]	EC50 (H358 cells (KRAS mutant); H358, rounded value in running text, read-out: EC50 H358): 3700 nM; fraction unbound at 6 h, 5 µM [3]: 0.003; EC50 ([4]; Homo sapiens, A-431, read-out: EC50 A431, A431, rounded value in running text): 1700 nM; EC50 (A549 cells (KRAS mutant); A549, read-out: EC50 A549): 3700 nM; Ki (EGFR-L858R [7]): 0.5 ± 0.1 nM; kinact (EGFR-L858R [7]): 0.00467 s⁻¹; kinact/KI (EGFR-L858R [7]): 8.78e+06 ± 650000 M⁻¹ s⁻¹
< 14	2910 ± 1470	26	700	2500 ± 1630	137 ± 51	15 ± 10	2.3 ± 0.4	4 ± 1.7	C=CC(=O)Nc1cccc(-c2c(-c3ccc(CN4CCN(C)CC4)cc3)[nH]c3ncnc(OC)c23)c1 [Compound 17a]	inhibition at 1 µM (BLK): 99 ± 1%; inhibition at 1 µM (BTK): 96 ± 1%; inhibition at 1 µM (EGFR-L861Q): 96 ± 2%; inhibition at 1 µM (EGFR-T790M/L858R): 88 ± 1%; inhibition at 1 µM (Her2): 82 ± 6%; inhibition at 1 µM (LCK): 80%; inhibition at 1 µM (EPHA1): 72 ± 2%; inhibition at 1 µM (FGFR1): 72 ± 4%; EC50 ([4]; read-out: EGFR CTG EC50 A431, A431, 96 hours, CellTiter-Glo): 768 ± 271 nM
